Several values for one entry are separate records, joined by “and”; a condition that tells them apart may be missing. Identical values can stand only once.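 Interpolation was linear, between the two tested concentrations surrounding the appropriate level; five concentrations were tested over 48 hours in 96-well plates. The concentration for 50% growth inhibition is given as GI50. Definition used: TGI = concentration required for complete inhibition of growth.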
Experiments:
Assay in all cases: NCI tumour cell line growth inhibition, 48 h
M19-MEL melanoma = tested on: M19-MEL melanoma
LXFL 529 NSCLC = tested on: LXFL 529 NSCLC
DMS 114 small cell lung = tested on: DMS 114 small cell lung
LOX IMVI melanoma = tested on: LOX IMVI melanoma
NCI-H226 lung = tested on: NCI-H226 lung
NCI/ADR-RES ovarian = tested on: NCI/ADR-RES ovarian
A498 renal = tested on: A498 renal
SNB-75 CNS = tested on: SNB-75 CNS
HOP-92 NSCLC = tested on: HOP-92 NSCLC
HCT-116 colon = tested on: HCT-116 colon
HL-60(TB) leukemia = tested on: HL-60(TB) leukemia
SF-295 CNS = tested on: SF-295 CNS
UO-31 renal = tested on: UO-31 renal
M14 melanoma = tested on: M14 melanoma
SW-620 colon = tested on: SW-620 colon
NCI-H522 lung = tested on: NCI-H522 lung
SF-539 CNS = tested on: SF-539 CNS
OVCAR-3 ovarian = tested on: OVCAR-3 ovarian
ACHN renal = tested on: ACHN renal
SN12C renal = tested on: SN12C renal
CAKI-1 renal = tested on: CAKI-1 renal
OVCAR-4 ovarian = tested on: OVCAR-4 ovarian
OVCAR-8 ovarian = tested on: OVCAR-8 ovarian
RPMI-8226 leukemia = tested on: RPMI-8226 leukemia
DLD-1 colon = tested on: DLD-1 colon
SK-MEL-2 melanoma = tested on: SK-MEL-2 melanoma
A549 NSCLC = tested on: A549 NSCLC
MCF7 breast = tested on: MCF7 breast
SK-MEL-28 melanoma = tested on: SK-MEL-28 melanoma
MOLT-4 leukemia = tested on: MOLT-4 leukemia

NC(=O)C#CC(N)=O
GI50 (M19-MEL melanoma): 11.8 µM and 10.1 µM and 28.6 µM
TGI (M19-MEL melanoma): 24.8 µM and 22.4 µM and > 65.8 µM
TGI (LXFL 529 NSCLC): > 100 µM
GI50 (DMS 114 small cell lung): 24.4 µM and 38.3 µM and > 100 µM
TGI (DMS 114 small cell lung): 71.5 µM and 125 µM and > 100 µM
TGI (LOX IMVI melanoma): 80.5 µM and 30.4 µM
GI50 (NCI-H226 lung): 73.6 µM
TGI (NCI-H226 lung): 169 µM and > 100 µM
GI50 (NCI/ADR-RES ovarian): 8.22 µM
TGI (NCI/ADR-RES ovarian): 25.9 µM and 18 µM
GI50 (A498 renal): 71 µM
TGI (A498 renal): 197 µM and 154 µM and > 100 µM
TGI (SNB-75 CNS): 79.8 µM and > 100 µM
TGI (HOP-92 NSCLC): 5.51 µM and 35.7 µM
GI50 (HCT-116 colon): 15.1 µM and 37.5 µM
TGI (HCT-116 colon): 29.5 µM and > 100 µM
GI50 (HL-60(TB) leukemia): 1.95 µM
TGI (HL-60(TB) leukemia): 4.29 µM and 4.03 µM and 6.3 µM
TGI (SF-295 CNS): 26.2 µM and > 31.6 µM
TGI (UO-31 renal): 63.4 µM and > 81.1 µM
TGI (M14 melanoma): 37.5 µM
GI50 (SW-620 colon): 5.74 µM and 3.1 µM and 15.2 µM
TGI (SW-620 colon): 18.2 µM and 12.1 µM and 31.1 µM
TGI (NCI-H522 lung): 46.5 µM and 27.7 µM and 55.2 µM
TGI (SF-539 CNS): 46.3 µM and 68.9 µM
GI50 (OVCAR-3 ovarian): 26.5 µM and 22.8 µM and > 100 µM
TGI (OVCAR-3 ovarian): 90.2 µM and 66.5 µM and > 100 µM
TGI (ACHN renal): > 100 µM
GI50 (SN12C renal): 14.3 µM and 36.4 µM
TGI (SN12C renal): 26.6 µM and > 100 µM
GI50 (CAKI-1 renal): 2.81 µM and 12.5 µM and 18.2 µM
TGI (CAKI-1 renal): 10.3 µM and 24.2 µM and 33.8 µM
GI50 (OVCAR-4 ovarian): 30.7 µM and 21.6 µM and > 100 µM
TGI (OVCAR-4 ovarian): 87.5 µM and 55 µM and > 100 µM
GI50 (OVCAR-8 ovarian): 8.34 µM and 19.2 µM
TGI (OVCAR-8 ovarian): 23.4 µM and 47.5 µM
TGI (RPMI-8226 leukemia): 62.1 µM
GI50 (DLD-1 colon): 26.5 µM and 22.2 µM and 62.5 µM
TGI (DLD-1 colon): 87.5 µM and 68.3 µM and > 100 µM
TGI (SK-MEL-2 melanoma): 30.2 µM and 26.4 µM and 42.8 µM
GI50 (A549 NSCLC): 49.4 µM
TGI (A549 NSCLC): 173 µM and 189 µM and > 100 µM
TGI (MCF7 breast): 48.5 µM and 56.8 µM
GI50 (SK-MEL-28 melanoma): 8.21 µM and 5.85 µM
TGI (SK-MEL-28 melanoma): 20 µM and 15.6 µM and 27 µM
GI50 (MOLT-4 leukemia): 3.31 µM and 14.2 µM
TGI (MOLT-4 leukemia): 18.6 µM and 37.5 µM

From PubChem BioAssay (NCI)
